Key:
[1] = test system: ceramide channels; test: Screening for influence on ceramide channel formation in liposomes or planar membranes; assay type: biochemical
From the text: In one embodiment, such methods comprise screening compounds for their ability to influence the formation of ceramide channels in liposomes or planar membranes. […] Such liposomes or planar membranes can be produced using any of a variety of lipids. Preferably, however, the constituents of the liposomes or planar membranes will be selected to mimic those of the MOM, or to have relevance to such membranes (see, Weissig, V. et al. (2006) “LIPOSOMES AND LIPOSOME-LIKE VESICLES FOR DRUG AND DNA DELIVERY TO MITOCHONDRIA,” J. Liposome Res. 16(3):249-264; Torchilin, V. P. (2006) “RECENT APPROACHES TO INTRACELLULAR DELIVERY OF DRUGS AND DNA AND ORGANELLE TARGETING,” Annu. Rev. Biomed. Eng. 8:343-375; Elrick, M. J. et al. (2006) “SPHINGOSINE, A PRODUCT OF CERAMIDE HYDROLYSIS, INFLUENCES THE FORMATION OF CERAMIDE CHANNELS,” Biophys. J. 1; 91(5):1749-1756; Bathori, G. et al. (2006) “CA2+-DEPENDENT CONTROL OF THE PERMEABILITY PROPERTIES OF THE MITOCHONDRIAL OUTER MEMBRANE AND VOLTAGE-DEPENDENT ANION-SELECTIVE CHANNEL (VDAC),” J. Biol. Chem. 281(25):17347-17358; Stiban, J. et al. (2006) “DIHYDROCERAMIDE HINDERS CERAMIDE CHANNEL FORMATION: IMPLICATIONS ON APOPIOSIS,” Apoptosis 11(5):773-780; Stover, T. C. et al. (2005) “SYSTEMIC DELIVERY OF LIPOSOMAL SHORT-CHAIN CERAMIDE LIMITS SOLID TUMOR GROWTH IN MURINE MODELS OF BREAST ADENOCARCINOMA,” Clin. Cancer Res. 11(9):3465-3474).

[2] = test system: erythrocytes; test: Permeabilization of erythrocytes (osmolytes of varying molecular weight); assay type: cell-based
[3] = test system: ceramide channels in the MOM of rat liver mitochondria; test: Complex IV accessibility assay (cytochrome c oxidation), isolated rat liver mitochondria; assay type: biochemical; conditions: radiolabeled ceramide, rat liver mitochondria, FIG. 12
From the text: The amount of ceramide that needs to be added to mitochondria to achieve permeabilization of the MOM to proteins is high compared to physiological levels. However, it is not the absolute ceramide concentration in solution that is important, but rather the concentration of ceramide in the membrane. In addition, only a small percentage of the ceramide added to the solution actually inserts into the membrane. This issue was directly addressed by using radiolabeled ceramide and simultaneously measuring how much ceramide inserts into rat liver mitochondria and how much permeabilization is achieved in the MOM by measuring the accessibility of exogenously added cytochrome c. […] Levels measured in mitochondria in the early stages of apoptosis are 4 pmoles per nmole. Thus, the results are well within the physiological range. Note that after correcting for the membrane partitioning, long and short-chain ceramide have equal potency as expected from the model of the ceramide channel.
The ability of the naturally-occurring C16-ceramide to form channels in the mitochondrial outer membranes of isolated yeast mitochondria was assessed via the complex IV accessibility assay. This assay measures the bidirectional flux of cytochrome c across the mitochondrial outer membrane (MOM) by monitoring its oxidation by complex IV of the mitochondrial inner membrane electron transport chain. The initial rate of cytochrome c oxidation when expressed as a percent of the rate measured in mitochondria with damaged outer membranes is a good measure of the permeability of the MOM to proapoptotic proteins. This method has an advantage over simply looking for the release of cytochrome c because both channel prevention and reversal by a potential inhibitor can be evaluated.
Thus, mitochondria are isolated from wild type yeast and yeast strains expressing either human Bcl-2 or Bcl-xL according to previously published methods (Lee, A. et al. (1998) “THE ROLE OF YEAST VDAC GENES ON THE PERMEABILITY OF THE MITOCHONDRIAL OUTER MEMBRANE,” J. Membr. Biol. 161:173-181). Isolated yeast mitochondria are incubated with the naturally occurring C16-ceramide and its ability to form channels is evaluated according to the complex IV accessibility assay (Siskind, L. J. et al. (2002) “CERAMIDE CHANNELS INCREASE THE PERMEABILITY OF THE MITOCHONDRIAL OUTER MEMBRANE To SMALL PROTEINS,” J. Biol. Chem. 277:26796-26803). This assay measures the CN-sensitive oxidation of exogenously-added reduced cytochrome c by cytochrome c oxidase of the inner membrane. […] Mitochondria are incubated with test agents (e.g., C16-ceramide) for a predetermined period of time (e.g., 5-20 minutes), reduced cytochrome c is added and the absorbance is monitored at 550 nm. […]

ceramide:phospholipids ratio needed to permeabilize an erythrocyte membrane relative to MOM [2] [fold] | Compound | concentration exhibiting potent inhibitory effects on ceramide channels [1] [mM] | ceramide inserted sufficient to permeabilize the outer membrane to cytochrome c [3]
 | OC[C@H]1O[C@H](O[C@H]2O[C@H](CO)[C@@H](O)[C@H](O)[C@H]2O)[C@H](O)[C@@H](O)[C@@H]1O [trehalose] | 50 | 
20 | ceramide |  | 2 pmoles per nmole of phospholip
